Experimental data as given in US20240279232A1, “USE OF SUBSTITUTED 5-(4-METHYL-6-PHENYL-4H-BENZO[F]IMIDAZO[1,5-A][1,4] DIAZEPIN-3-YL)-1,2,4-O[…] THE TREATMENT OF INFLAMMATORY CONDITIONS” (priority 2021, published 2024).

Experiments:
[1] = system: iNOS protein; test: iNOS ELISA in activated microglia; assay type: cell-based, mouse; conditions: 10 μM, 24 h treatment, vs vehicle
Protocol: Mouse microglia were activated with IFNγ/LPS and treated with vehicle or 10 μM GL-IV-03. mRNA was isolated after 15 min, 1 h, 3 h and 6 h and iNOS was quantified using RT-qPCR. Cycle numbers for each sample were normalized to GAPDH using the ΔCt method (n=3). Mouse microglia were activated with IFNγ/LPS and treated with vehicle or 10 μM GL-IV-03 for 24 h. Cellular protein was extracted and analyzed with the mouse iNOS ELISA kit from Abcam (n=3). *, (p<0.05), ** (p<0.01) or *** (p<0.001) significance was calculate with ANOVA.
iNOS ELISA. Mouse microglia (2 mL of 500,000 cells/mL cell solution) were activated with 50 ng/mL LPS (Invivogen, NC9836) and 150 U/mL IFNγ (R&D Systems, 485M1100), and treated with compounds of interest in 6 well plates (VWR, 10062-892) for 24 hours. […] Cells were lysed with RIPA buffer and protein concentration quantified with the Pierce Rapid Gold BCA Protein Assay Kit (Thermo Scientific, A53227). Samples at 50 μg/mL were analyzed with the Mouse iNOS ELISA kit (ABCAM, ab253219). Absorbance (λ: 450 nm) was measured using a TECAN Infinite M1000 plate reader. Each measurement was carried with an n=3 and significance analyzed by ANOVA.

[2] = system: Swiss Webster mice; test: Formalin test; assay type: in vivo, mouse; conditions: orally; GL-IV-03 10 mg/kg; ketoprofen 30 mg/kg
Protocol: Webster mice were treated orally four days in advance with indicated compounds and doses before the injection of 2% formalin in the right hind paw. Mice were evaluated during the first 5 min (phase 1) and after 20 minutes (phase 2) for 5 minutes in 5 seconds intervals Licking and biting the right hind paw during a 5 second interval was noted and combined as total time addressing the injected paw. Data is given as mean with SEM (n =8). ** indicate p<0.01 (unpaired t-test).
The antinociceptive effect of GL-IV-03 was investigated with the formalin test. Paw injections of formalin elicited a biphasic pain response separated in time (1-5 minutes and 20-60 minutes). […] Sensorimotor impairment and sedation were investigated with mice that were trained to balance on a rotating rod over a period of three minutes (rotarod). The amount of time that mice remained balanced on the rod after intraperitoneal (i.p.) and oral (p.o.) treatment with GL-IV-03 and MP-IV-010 is summarized in FIG. 7B-7C. […] The effect was similar to non-steroidal anti-inflammatory drug ketoprofen at 30 mg/kg. Sedation and inhibition of sensorimotor coordination can influence licking and biting pain behaviors, prompting rotarod studies for GL-IV-03 and MP-IV-010. […] In contrast to diazepam, a benzodiazepine with high affinity for the α1β2/3γ2 and other GABAAR subtypes, was sedating at 5 mg/kg.
Formalin test. […]

[3] = target: D5 (Homo sapiens, UniProt P21918); test: PDSP primary binding D5; conditions: PDSP primary screening
Chain of D5 (P21918 whole entry): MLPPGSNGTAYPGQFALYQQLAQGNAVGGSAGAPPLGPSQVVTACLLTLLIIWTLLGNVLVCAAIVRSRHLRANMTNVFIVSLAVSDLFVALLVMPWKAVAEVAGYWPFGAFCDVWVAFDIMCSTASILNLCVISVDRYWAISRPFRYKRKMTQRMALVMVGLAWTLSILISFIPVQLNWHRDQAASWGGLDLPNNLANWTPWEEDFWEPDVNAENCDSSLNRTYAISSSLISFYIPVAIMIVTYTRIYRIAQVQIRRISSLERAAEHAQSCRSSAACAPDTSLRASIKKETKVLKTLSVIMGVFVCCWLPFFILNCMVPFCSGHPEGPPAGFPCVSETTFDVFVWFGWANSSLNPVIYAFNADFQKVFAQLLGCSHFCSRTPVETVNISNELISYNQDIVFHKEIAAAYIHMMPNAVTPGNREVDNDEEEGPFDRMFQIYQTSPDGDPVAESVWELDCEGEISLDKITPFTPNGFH
Protocol: (§1) Because reduction of NO could not be reversed by GABAAR antagonists, the possible binding of MP-IV-010 to other cellular receptors was evaluated in collaboration with the NIMH Psychoactive Drug Screening Program.
(§2) Psychoactive Drug Screening Program. Detailed protocols for the primary and secondary radioligand binding assays can be found in the National Institute of Mental Health's Psychoactive Drug Screening Program (NIMH PDSP) Assay Protocol Book. Briefly, primary and secondary radioligand binding assays are carried out in a final of volume of 125 μL per well in appropriate binding buffer. The radioactive ligand concentration is close to the Kd. Total binding and nonspecific binding are determined in the absence and presence of 10 μM of appropriate reference compound, respectively. In brief, plates are usually incubated at room temperature and in the dark for 90 min. Reactions are stopped by vacuum filtration onto 0.3% polyethyleneimine (PEI) soaked 96-well filter mats using a 96-well Filtermate harvester, followed by three washes with cold PBS buffer. Scintillation cocktail is then melted onto the microwave-dried filters on a hot plate and radioactivity counted in a Microbeta counter. The data (n=6) were analyzed by nonlinear regression.

[4] = target: H1 (Homo sapiens, UniProt P35367); test: PDSP primary binding H1; conditions: PDSP primary screening
Chain of H1 (P35367 whole entry): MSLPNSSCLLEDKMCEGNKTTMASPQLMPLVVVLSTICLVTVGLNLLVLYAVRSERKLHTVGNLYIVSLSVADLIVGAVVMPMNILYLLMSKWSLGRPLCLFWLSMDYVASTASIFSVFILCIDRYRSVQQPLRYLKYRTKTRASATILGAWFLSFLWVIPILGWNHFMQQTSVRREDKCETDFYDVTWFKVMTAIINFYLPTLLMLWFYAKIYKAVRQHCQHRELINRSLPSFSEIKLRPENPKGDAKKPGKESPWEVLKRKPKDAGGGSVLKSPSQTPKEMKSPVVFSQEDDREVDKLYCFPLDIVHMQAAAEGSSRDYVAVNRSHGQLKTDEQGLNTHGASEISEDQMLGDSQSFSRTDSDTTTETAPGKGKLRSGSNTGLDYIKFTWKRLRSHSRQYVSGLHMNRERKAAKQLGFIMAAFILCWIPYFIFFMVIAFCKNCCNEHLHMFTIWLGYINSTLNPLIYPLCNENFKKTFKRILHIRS
Protocol: as §1, §2

[5] = target: H4 (Homo sapiens, UniProt Q9H3N8); test: PDSP primary binding H4; conditions: PDSP primary screening
Protocol: as §1, §2

[6] = target: Alpha2C (Homo sapiens, UniProt P18825); test: PDSP primary binding Alpha2C; conditions: PDSP primary screening
Chain of Alpha2C (P18825 whole entry): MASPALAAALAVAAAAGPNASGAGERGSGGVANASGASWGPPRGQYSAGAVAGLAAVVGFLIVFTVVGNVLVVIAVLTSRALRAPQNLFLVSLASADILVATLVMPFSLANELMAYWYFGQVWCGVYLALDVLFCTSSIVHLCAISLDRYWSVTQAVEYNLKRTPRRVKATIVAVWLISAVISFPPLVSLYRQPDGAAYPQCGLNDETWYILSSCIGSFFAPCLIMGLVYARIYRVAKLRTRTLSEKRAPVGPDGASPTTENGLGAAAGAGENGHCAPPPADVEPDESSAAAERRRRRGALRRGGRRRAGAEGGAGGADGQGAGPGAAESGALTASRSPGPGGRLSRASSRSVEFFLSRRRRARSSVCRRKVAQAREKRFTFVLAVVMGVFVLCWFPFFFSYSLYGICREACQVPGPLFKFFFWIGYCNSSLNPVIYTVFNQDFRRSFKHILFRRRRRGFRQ
Protocol: as §1, §2

[7] = target: 5-HT5A (Homo sapiens, UniProt P47898); test: PDSP primary binding 5-HT5A; conditions: PDSP primary screening
Chain of 5-HT5A (P47898 whole entry, species assumed): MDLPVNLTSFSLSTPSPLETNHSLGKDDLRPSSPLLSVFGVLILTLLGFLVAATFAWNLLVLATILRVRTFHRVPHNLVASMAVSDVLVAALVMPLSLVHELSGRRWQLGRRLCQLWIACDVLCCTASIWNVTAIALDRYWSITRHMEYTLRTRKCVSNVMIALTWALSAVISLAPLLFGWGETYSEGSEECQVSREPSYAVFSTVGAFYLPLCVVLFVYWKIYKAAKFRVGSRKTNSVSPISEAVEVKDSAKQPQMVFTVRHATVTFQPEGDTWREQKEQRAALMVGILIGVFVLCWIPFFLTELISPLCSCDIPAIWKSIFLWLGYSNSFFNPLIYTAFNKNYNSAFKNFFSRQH
Protocol: as §1, §2

[8] = target: NET (Homo sapiens, UniProt P23975); test: PDSP primary binding NET; conditions: PDSP primary screening
Protocol: as §1, §2

[9] = target: 5-HT3 (Homo sapiens, UniProt P46098); test: PDSP primary binding 5-HT3; conditions: PDSP primary screening
Chain of 5-HT3 (P46098 24-478, species assumed): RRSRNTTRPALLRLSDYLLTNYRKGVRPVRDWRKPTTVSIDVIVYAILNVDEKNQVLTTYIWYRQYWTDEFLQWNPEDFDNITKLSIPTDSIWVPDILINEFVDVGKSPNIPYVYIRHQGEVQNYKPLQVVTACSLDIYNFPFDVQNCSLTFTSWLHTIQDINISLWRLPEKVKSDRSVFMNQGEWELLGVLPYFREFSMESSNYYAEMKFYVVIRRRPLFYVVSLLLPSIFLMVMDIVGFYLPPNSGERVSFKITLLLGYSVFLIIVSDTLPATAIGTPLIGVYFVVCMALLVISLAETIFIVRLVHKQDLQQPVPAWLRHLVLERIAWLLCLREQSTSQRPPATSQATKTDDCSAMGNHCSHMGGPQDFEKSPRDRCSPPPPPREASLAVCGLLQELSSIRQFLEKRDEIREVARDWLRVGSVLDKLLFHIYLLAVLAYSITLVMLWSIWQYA
Protocol: as §1, §2

[10] = target: 5-HT6 (Homo sapiens, UniProt P50406); test: PDSP primary binding 5-HT6; conditions: PDSP primary screening
Chain of 5-HT6 (P50406 whole entry, species assumed): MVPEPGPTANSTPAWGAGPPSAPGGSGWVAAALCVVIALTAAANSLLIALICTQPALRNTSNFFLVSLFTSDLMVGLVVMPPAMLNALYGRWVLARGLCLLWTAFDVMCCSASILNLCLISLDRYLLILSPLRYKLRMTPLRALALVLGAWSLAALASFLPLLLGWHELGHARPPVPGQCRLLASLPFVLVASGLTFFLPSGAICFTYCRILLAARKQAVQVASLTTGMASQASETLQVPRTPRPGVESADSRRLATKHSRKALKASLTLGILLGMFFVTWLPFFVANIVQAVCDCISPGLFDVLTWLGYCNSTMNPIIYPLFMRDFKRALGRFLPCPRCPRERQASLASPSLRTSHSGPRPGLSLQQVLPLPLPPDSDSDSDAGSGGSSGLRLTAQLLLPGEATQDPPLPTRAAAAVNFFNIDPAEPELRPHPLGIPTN
Protocol: as §1, §2

[11] = target: α3β3γ2 GABAAR (Homo sapiens, UniProt P18507+P34903); test: Membrane potential red dye assay; assay type: cell-based
Chain of α3β3γ2 GABAAR (P34903 29-492): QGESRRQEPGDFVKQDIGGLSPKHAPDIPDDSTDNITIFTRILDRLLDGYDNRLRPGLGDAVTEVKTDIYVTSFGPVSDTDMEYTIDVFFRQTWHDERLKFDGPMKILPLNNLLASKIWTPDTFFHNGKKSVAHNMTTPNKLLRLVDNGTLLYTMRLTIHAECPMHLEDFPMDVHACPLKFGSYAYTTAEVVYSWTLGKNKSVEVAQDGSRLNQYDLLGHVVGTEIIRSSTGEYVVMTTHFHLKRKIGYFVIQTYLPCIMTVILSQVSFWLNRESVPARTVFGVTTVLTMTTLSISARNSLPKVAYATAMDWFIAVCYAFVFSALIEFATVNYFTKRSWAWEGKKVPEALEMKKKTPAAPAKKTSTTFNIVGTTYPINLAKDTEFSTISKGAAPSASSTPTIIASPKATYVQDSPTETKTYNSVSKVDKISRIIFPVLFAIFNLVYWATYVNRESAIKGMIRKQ
Chain of α3β3γ2 GABAAR (P28472 26-473 partner): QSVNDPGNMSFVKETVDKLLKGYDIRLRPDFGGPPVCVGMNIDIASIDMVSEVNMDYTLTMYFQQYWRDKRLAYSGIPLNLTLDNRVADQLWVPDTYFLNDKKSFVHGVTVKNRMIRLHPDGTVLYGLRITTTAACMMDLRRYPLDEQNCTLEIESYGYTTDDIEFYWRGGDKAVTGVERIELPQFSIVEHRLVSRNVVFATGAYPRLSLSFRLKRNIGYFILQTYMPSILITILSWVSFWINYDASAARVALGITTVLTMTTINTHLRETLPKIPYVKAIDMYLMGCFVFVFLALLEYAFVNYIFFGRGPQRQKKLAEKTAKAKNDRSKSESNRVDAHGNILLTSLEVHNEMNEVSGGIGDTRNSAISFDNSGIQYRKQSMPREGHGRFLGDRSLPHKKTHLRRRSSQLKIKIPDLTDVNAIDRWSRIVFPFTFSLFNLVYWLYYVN
Chain of α3β3γ2 GABAAR (P18507 40-475): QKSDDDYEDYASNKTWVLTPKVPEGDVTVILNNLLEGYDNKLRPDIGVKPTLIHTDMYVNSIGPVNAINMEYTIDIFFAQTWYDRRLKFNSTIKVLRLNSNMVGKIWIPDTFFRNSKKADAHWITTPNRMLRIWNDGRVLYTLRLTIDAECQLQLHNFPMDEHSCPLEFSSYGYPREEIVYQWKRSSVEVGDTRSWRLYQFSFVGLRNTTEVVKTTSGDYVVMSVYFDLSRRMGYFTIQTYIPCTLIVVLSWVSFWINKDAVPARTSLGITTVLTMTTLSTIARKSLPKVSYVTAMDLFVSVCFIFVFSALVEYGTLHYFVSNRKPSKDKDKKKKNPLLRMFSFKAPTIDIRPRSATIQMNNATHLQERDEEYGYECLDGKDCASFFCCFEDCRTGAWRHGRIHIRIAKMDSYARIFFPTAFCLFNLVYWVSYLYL
Protocol: To determine the affinity of MP-IV-010 for these receptors, concentration dependent assays were carried out as depicted in FIG. 4A-4C.

[12] = target: D3 (Homo sapiens, UniProt P35462); test: PDSP primary binding D3; conditions: PDSP primary screening
Chain of D3 (P35462 whole entry): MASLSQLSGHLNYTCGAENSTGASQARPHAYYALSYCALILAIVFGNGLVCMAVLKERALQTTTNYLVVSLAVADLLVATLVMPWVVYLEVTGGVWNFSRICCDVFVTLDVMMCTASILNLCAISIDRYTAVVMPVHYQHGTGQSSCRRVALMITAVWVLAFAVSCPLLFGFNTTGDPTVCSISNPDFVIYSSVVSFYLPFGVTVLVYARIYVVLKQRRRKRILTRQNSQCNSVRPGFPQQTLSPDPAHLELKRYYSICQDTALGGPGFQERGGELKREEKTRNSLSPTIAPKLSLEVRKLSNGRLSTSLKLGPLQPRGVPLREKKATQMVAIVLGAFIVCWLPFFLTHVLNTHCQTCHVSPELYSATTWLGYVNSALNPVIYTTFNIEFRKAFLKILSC
Protocol: as §1, §2

[13] = target: 5-HT7 (Homo sapiens, UniProt P34969); test: PDSP primary binding 5-HT7; conditions: PDSP primary screening
Chain of 5-HT7 (P34969 whole entry, species assumed): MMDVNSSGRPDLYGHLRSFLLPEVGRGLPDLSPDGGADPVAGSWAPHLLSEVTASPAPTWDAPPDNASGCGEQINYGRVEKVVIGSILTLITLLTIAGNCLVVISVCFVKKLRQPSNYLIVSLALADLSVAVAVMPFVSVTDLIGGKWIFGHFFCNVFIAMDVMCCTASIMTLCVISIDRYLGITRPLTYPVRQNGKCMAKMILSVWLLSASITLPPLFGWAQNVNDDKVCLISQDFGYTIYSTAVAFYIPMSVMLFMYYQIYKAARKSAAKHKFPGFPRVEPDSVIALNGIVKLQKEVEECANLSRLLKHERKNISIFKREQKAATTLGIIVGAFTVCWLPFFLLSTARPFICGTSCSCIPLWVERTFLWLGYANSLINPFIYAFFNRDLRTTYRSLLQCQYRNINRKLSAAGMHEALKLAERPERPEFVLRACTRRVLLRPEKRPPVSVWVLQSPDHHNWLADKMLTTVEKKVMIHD
Protocol: as §1, §2

Row | Structure (SMILES) | amount of iNOS protein [1] | antinociceptive effect, formalin test (phase 1 and 2) [2] | Percent Competition D5 [3] | Percent Competition H1 [4] | Percent Competition H4 [5] | Percent Competition Alpha2C [6] | Percent Competition 5-HT5A [7] | Percent Competition NET [8] | Percent Competition 5-HT3 [9] | Percent Competition 5-HT6 [10] | EC50 [11] | Percent Competition D3 [12] | Percent Competition 5-HT7 [13]
1 | CCc1noc(-c2ncn3c2[C@@H](C)N=C(c2ccccc2F)c2cc(C4CC4)ccc2-3)n1 [GL-IV-03, (R)-5-(8-Cyclopropyl-6-(2-fluorophenyl)-4-methyl-4H-benzo[f]imidazo[1,5-a][1,4]diazepin-3-yl)-3-ethyl-1,2,4-oxadiazole] | significantly lower | antinociceptive effects in both acute pain (phase 1) and inflammation mediated pain (phase 2) |  |  |  |  |  |  |  |  |  |  | 
2 | C#Cc1ccc2c(c1)C(c1ccccc1F)=N[C@H](C)c1c(-c3nc(C(C)C)no3)ncn1-2 [MP-IV-010, (R)-5-(8-ethynyl-6-(2-fluorophenyl)-4-methyl-4H-benzo[f]imidazo[1,5-a][1,4]diazepin-3-yl)-3-isopropyl-1,2,4-oxadiazole] |  |  | 29% | 19% | 6% | 31% | 11% | −2% | 13% | 21% | 14.3 µM | 15% | −5%
